Data: PMC11222147, “Host defence peptide plectasin targets bacterial cell wall precursor lipid II by a calcium-sensitive supramolecular mechanism” (Nature Microbiology, 2024)
In brackets after ≈: the same amount, converted by molar mass. Where a SMILES comes first, the peptide text is derived from it. Bridges are numbered along the chain shown (N, C = ends).

System: S. simulans 22
Experiment: MIC assays under standard conditions
Assay type: cell-based, Staphylococcus simulans
Conditions: for Minimum inhibitory concentration, S. simulans: Supplementary Table 1, 16–20 h
Procedure: Plectasin and analogues were serially diluted in cation-adjusted Mueller–Hinton broth (MHB) in round-bottom polypropylene 96-well plates (50 µl per well). Selected bacterial strains were grown from glycerol stocks on blood agar plates. Individual colonies were inoculated in TSB and incubated at 37 °C while shaking until OD600 reached 0.5. Bacterial suspensions were then diluted 100 times in cation-adjusted MHB and distributed (50 μl per well) over the microplate containing the diluted plectasin solutions. Plates were covered by a gas-permeable adhesive membrane and incubated at 37 °C while shaking. MICs were determined by visual inspection after 16–20 h (Staphylococcus) or 20–24 h (Streptococcus). For Streptococcus strains, the broth was additionally supplemented with 5% lysed horse blood, and the microplates were incubated under 5% CO2 atmosphere. In the assays, we used the following strains: S. simulans, S. pneumoniae serotype 8, S. pneumoniae ATCC6305 and Streptococcus pyogenes M3.

| SMILES | Minimum inhibitory concentration, S. simulans (cation-adjusted MHB, 37 °C) | reduction in activity vs plectasin (from MIC of Table 1) | MIC (standard conditions, cation-adjusted MHB, 37 °C, visual inspection after 16–20 h) |
| --- | --- | --- | --- |
| CSCC[C@@H]1NC(=O)[C@H](CC(=O)O)NC(=O)[C@H](CC(=O)O)NC(=O)[C@H](CCC(=O)O)NC(=O)[C@H](CC(=O)O)NC(=O)[C@H](Cc2c[nH]c3ccccc23)NC(=O)[C@@H]2CCCN2C(=O)CNC(=O)[C@H](CC(N)=O)NC(=O)[C@@H](NC(=O)CNC(=O)[C@H](Cc2ccccc2)NC(=O)CN)CSSC[C@@H]2NC(=O)[C@H](Cc3ccc(O)cc3)NC(=O)CNC(=O)CNC(=O)[C@H](CCCCN)NC(=O)[C@H](Cc3ccc(O)cc3)NC(=O)CNC(=O)[C@H](CCCCN)NC(=O)[C@H](CC(=O)O)NC(=O)[C@H](CO)NC(=O)[C@H](CCCCN)NC(=O)[C@@H]3CSSC[C@@H](C(=O)N[C@@H](Cc4ccc(O)cc4)C(=O)O)NC(=O)[C@H](CCCCN)NC(=O)[C@H](CSSC[C@H](NC(=O)[C@H](CCC(N)=O)NC1=O)C(=O)N[C@@H](Cc1c[nH]cn1)C(=O)N[C@@H](CC(N)=O)C(=O)N[C@@H](Cc1c[nH]cn1)C(=O)N3)NC(=O)[C@H](C(C)C)NC(=O)[C@H](Cc1ccccc1)NC(=O)CNC(=O)CNC(=O)[C@H](CCCCN)NC(=O)[C@H](C)NC2=O [I22D] (H-GFGCNGPWDEDDMQCHNHCKSDKGYKGGYCAKGGFVCKCY-OH; disulfide 4-30, 15-37, 19-39 (inferred); N-terminus and C-terminus assumed) | > 50 µg/mL | – | – |
| CSCC[C@@H]1NC(=O)[C@H](CC(=O)O)NC(=O)[C@H](CC(=O)O)NC(=O)[C@H](CCC(=O)O)NC(=O)[C@H](CC(=O)O)NC(=O)[C@H](Cc2c[nH]c3ccccc23)NC(=O)[C@@H]2CCCN2C(=O)CNC(=O)[C@H](CC(N)=O)NC(=O)[C@@H](NC(=O)CNC(=O)[C@H](Cc2ccccc2)NC(=O)CN)CSSC[C@@H]2NC(=O)[C@H](Cc3ccc(O)cc3)NC(=O)CNC(=O)CNC(=O)[C@H](CCCCN)NC(=O)[C@H](Cc3ccc(O)cc3)NC(=O)CNC(=O)[C@H](CCCCN)NC(=O)[C@H](Cc3ccccc3)NC(=O)[C@H](CO)NC(=O)[C@H](CCCCN)NC(=O)[C@@H]3CSSC[C@@H](C(=O)N[C@@H](Cc4ccc(O)cc4)C(=O)O)NC(=O)[C@H](CCCCN)NC(=O)[C@H](CSSC[C@H](NC(=O)[C@H](CCC(N)=O)NC1=O)C(=O)N[C@@H](Cc1c[nH]cn1)C(=O)N[C@@H](CC(N)=O)C(=O)N[C@@H](Cc1c[nH]cn1)C(=O)N3)NC(=O)[C@H](C(C)C)NC(=O)[C@H](Cc1ccccc1)NC(=O)CNC(=O)CNC(=O)[C@H](CCCCN)NC(=O)[C@H](C)NC2=O [I22F] (H-GFGCNGPWDEDDMQCHNHCKSFKGYKGGYCAKGGFVCKCY-OH; disulfide 4-30, 15-37, 19-39 (inferred); N-terminus and C-terminus assumed) | > 50 µg/mL | – | – |
| CSCC[C@@H]1NC(=O)[C@H](CC(=O)O)NC(=O)[C@H](CC(=O)O)NC(=O)[C@H](CCC(=O)O)NC(=O)[C@H](CC(=O)O)NC(=O)[C@H](Cc2c[nH]c3ccccc23)NC(=O)[C@@H]2CCCN2C(=O)CNC(=O)[C@H](CC(N)=O)NC(=O)[C@@H](NC(=O)CNC(=O)[C@H](Cc2ccccc2)NC(=O)CN)CSSC[C@@H]2NC(=O)[C@H](Cc3ccc(O)cc3)NC(=O)CNC(=O)CNC(=O)[C@H](CCCCN)NC(=O)[C@H](Cc3ccc(O)cc3)NC(=O)CNC(=O)[C@H](CCCCN)NC(=O)[C@H](CC(C)C)NC(=O)[C@H](CO)NC(=O)[C@H](CCCCN)NC(=O)[C@@H]3CSSC[C@@H](C(=O)N[C@@H](Cc4ccc(O)cc4)C(=O)O)NC(=O)[C@H](CCCCN)NC(=O)[C@H](CSSC[C@H](NC(=O)[C@H](CCC(N)=O)NC1=O)C(=O)N[C@@H](Cc1c[nH]cn1)C(=O)N[C@@H](CC(N)=O)C(=O)N[C@@H](Cc1c[nH]cn1)C(=O)N3)NC(=O)[C@H](C(C)C)NC(=O)[C@H](Cc1ccccc1)NC(=O)CNC(=O)CNC(=O)[C@H](CCCCN)NC(=O)[C@H](C)NC2=O [I22L] (H-GFGCNGPWDEDDMQCHNHCKSLKGYKGGYCAKGGFVCKCY-OH; disulfide 4-30, 15-37, 19-39 (inferred); N-terminus and C-terminus assumed) | 1,56 μg/mL | – | – |
| CSCC[C@@H]1NC(=O)[C@H](CC(=O)O)NC(=O)[C@H](CC(=O)O)NC(=O)[C@H](CCC(=O)O)NC(=O)[C@H](CC(=O)O)NC(=O)[C@H](Cc2c[nH]c3ccccc23)NC(=O)[C@@H]2CCCN2C(=O)CNC(=O)[C@H](CC(N)=O)NC(=O)[C@@H](NC(=O)CNC(=O)[C@H](Cc2ccccc2)NC(=O)CN)CSSC[C@@H]2NC(=O)[C@H](Cc3ccc(O)cc3)NC(=O)CNC(=O)CNC(=O)[C@H](CCCCN)NC(=O)[C@H](Cc3ccc(O)cc3)NC(=O)CNC(=O)[C@H](CCCCN)NC(=O)[C@H](C(C)C)NC(=O)[C@H](CO)NC(=O)[C@H](CCCCN)NC(=O)[C@@H]3CSSC[C@@H](C(=O)N[C@@H](Cc4ccc(O)cc4)C(=O)O)NC(=O)[C@H](CCCCN)NC(=O)[C@H](CSSC[C@H](NC(=O)[C@H](CCC(N)=O)NC1=O)C(=O)N[C@@H](Cc1c[nH]cn1)C(=O)N[C@@H](CC(N)=O)C(=O)N[C@@H](Cc1c[nH]cn1)C(=O)N3)NC(=O)[C@H](C(C)C)NC(=O)[C@H](Cc1ccccc1)NC(=O)CNC(=O)CNC(=O)[C@H](CCCCN)NC(=O)[C@H](C)NC2=O [I22V] (H-GFGCNGPWDEDDMQCHNHCKSVKGYKGGYCAKGGFVCKCY-OH; disulfide 4-30, 15-37, 19-39 (inferred); N-terminus and C-terminus assumed) | 1,56 μg/mL | – | – |
| CC[C@H](C)[C@@H]1NC(=O)[C@H](CO)NC(=O)[C@H](CCCCN)NC(=O)[C@@H]2CSSC[C@@H](C(=O)N[C@@H](Cc3ccc(O)cc3)C(=O)O)NC(=O)[C@H](CCCCN)NC(=O)[C@@H]3CSSC[C@H](NC(=O)[C@H](CCC(N)=O)NC(=O)[C@H](CCSC)NC(=O)[C@H](CC(=O)O)NC(=O)[C@H](CC(=O)O)NC(=O)[C@H](CCC(=O)O)NC(=O)[C@H](CC(=O)O)NC(=O)[C@H](Cc4c[nH]c5ccccc45)NC(=O)[C@@H]4CCCN4C(=O)CNC(=O)[C@H](CC(N)=O)NC(=O)[C@@H](NC(=O)CNC(=O)[C@H](Cc4ccccc4)NC(=O)CN)CSSC[C@H](NC(=O)[C@H](Cc4ccc(O)cc4)NC(=O)CNC(=O)CNC(=O)[C@H](CCCCN)NC(=O)[C@H](Cc4ccc(O)cc4)NC(=O)CNC(=O)[C@H](C)NC1=O)C(=O)N[C@@H](C)C(=O)N[C@@H](CCCCN)C(=O)NCC(=O)NCC(=O)N[C@@H](Cc1ccccc1)C(=O)N[C@@H](C(C)C)C(=O)N3)C(=O)N[C@@H](Cc1c[nH]cn1)C(=O)N[C@@H](CC(N)=O)C(=O)N[C@@H](Cc1c[nH]cn1)C(=O)N2 [K23A] (H-GFGCNGPWDEDDMQCHNHCKSIAGYKGGYCAKGGFVCKCY-OH; disulfide 4-30, 15-37, 19-39 (inferred); N-terminus and C-terminus assumed) | – | fivefold to tenfold | 6.25 µg/mL (≈ 1.44 µM) |
